How the values were obtained:
IGFBP-2−/− mice = assay: Adipocyte area measurement in peri-gonadal adipose tissue; assay type: in vivo, mouse; conditions: after 12 weeks
Method: Adipocyte area measurement. Samples of peri-gonadal adipose tissue were fixed in 10% formalin and embedded in paraffin. Multiple sections were obtained from each sample and stained with hematoxylin and eosin. Digital images of each section were acquired using an Olympus BX61 microscope and cell areas were traced manually for at least 200 cells per section by an investigator blinded to the sample identity, using Image J software (1ASS). Four sections from each adipose depot were analyzed to derive the mean cell area per mouse 6 mice per group).

[1] = system: primary preadipocytes from IGFBP-2−/− mice; assay: Differentiation of primary preadipocytes (immunoblot of adiponectin, aP2, PPARγ; Oil Red O staining); assay type: cell-based, mouse; conditions: for relative potency as inhibitor of adipogenesis / preadipocyte differentiation (in words): comparison between peptides and proteins, immunoblot and Oil Red O; for reduction of PPARγ expression / reduction of aP2 expression / reduction of adiponectin expression: peptide 6 μg/ml in differentiation medium vs differentiation medium only, immunoblot relative to β-actin; for reduction of PPARγ expression / reduction of aP2 expression / reduction of adiponectin expression / % suppression of adiponectin: mean±SE; for % suppression of adiponectin: N=3
Method: Primary preadipocytes were isolated from epididymal fat pads of 6 week old IGFBP-2^−/− mice. The cells were cultured using a previously described method (Boney, C M et al., 1994). The fat pads were weighed and the tissue was digested with an equal volume (W/V) of collagenase type A (Roche Applied Science, Indianapolis, Ind.) in HEPES buffer (0.1M and 1.5% BSA) for 45 min at 37° C. Following complete digestion, the preadipocytes were separated from the stromal vascular cells by centrifugation at 500×g for 5 min. The pelleted cells were washed with DMEM containing 30 mM glucose (Gibco, Grand Island, N.Y.) and passed through a 100 μm mesh filter (BD Biosciences, Bedford, Mass.). The cells were then plated in 6-well plates (Falcon Corp., Franklin Lakes, N.J.) at a density of 1.2-1.5×10^4 cells/ml in DMEM containing 30 mM glucose supplemented with penicillin (100 U/ml), streptomycin (100 μg/ml), and 10% fetal bovine serum hereafter referred to as standard medium. The cultures had the medium changed every 2 days until they reached confluency. Two day post-confluent cells were then exposed to differentiation medium (serum free DMEM containing 0.5 mM IBMX, 1 μM dexamethasone, and 5 μg/mL insulin) and incubated for 2 days. Experimental treatments that were added to this medium included either wild type IGFBP-2 (3 μg/ml), HBD1 peptide (6 μg/ml), HBD1 control peptide (6 μg/ml), HBD2 peptide (6 μg/ml), HBD2 control peptide (6 μg/ml), HBD1 mutant IGFBP-2 (3 μg/ml) or the HBD2 mutant IGFBP-2 (3 μg/ml). Cultures were maintained for two additional days in the standard medium supplemented with 5 μg/ml insulin. Thereafter, the cultures were kept in the fresh standard medium without insulin for additional two days.
After treatment, the cells were rinsed with PBS for two times and fixed with 10% formalin for 30 min at room temperature. After rinsing with distilled water for twice, 100% propylene glycol (Poly Scientific, Bay Shore, N.Y.) was added and incubated for 5 min. Before adding Oil Red O solution (Poly Scientific, Bay Shore, N.Y.), propylene glycol was removed. The cultures were incubated for 10 min at 60° C. Removing Oil Red O solution, the cultures were incubated with 80% propylene glycol for 5 min, After incubation, the cultures were rinsed with tap water twice. Images were captured using an Olympus IX81 inverted microscope.
Differentiated adipocytes were lysed in ice-cold lysis buffer (Xi et al., 2008). After centrifugation at 14,000×g for 10 min, solubilized proteins were quantified by the Bradford method (Thermo Scientific, Rockford, Ill.). Equal protein amounts of lysates were loaded onto a SDS-polyacrylamide gel and the proteins were separated, then transferred to an Immobilon filter and visualized by immunoblotting using the appropriate antibody. The primary antibody dilutions that were used were 1:1000 for the anti-adiponectin antibody (Affinity BioReagents, Golden, Colo.), 1:500 for the anti-PPARγ antibody (Cell Signaling Technology Inc., Beverly, Mass.), 1:2000 for the anti-apt antibody (ProSci Inc., Poway, Calif.) and 1:5000 for the anti-β-actin antibody (Sigma Chemical Company, St. Louis, Mo.). The immune complexes were visualized using enhanced chemiluminescence (Thermo Fischer Scientific, Rockford, Ill.).
Preadipocytes were prepared from mice and grown in culture as described herein. The respective mouse and human peptides were added to cells and the cells were lysed and the lysates were run on SDS gels as described. Immunoblotting for adiponectin was carried as described. Three concentrations of each peptide, 0.7, 2.0 and 6.0 μg/ml, were compared. The results were expressed as % suppression mean±SE(N=3) and were as follows.
Cell culture of primary preadipocytes. Preadipocytes were isolated from epididymal fat pads of IGFBP-2^−/− mice. The cultures had the medium changed every 2 days until they reached confluency. […]

KHLSLEEPKKLRP [HBD1 peptide]
adipocyte size (IGFBP-2−/− mice): 12406±748 pixels/cell | relative potency as inhibitor of adipogenesis / preadipocyte differentiation (in words) [1]: less activity | relative potency as inhibitor of adipogenesis / preadipocyte differentiation (in words) ([1]; listed as mouse HBD1 peptide): equivalent in inhibiting preadipocyte differentiation | reduction of PPARγ expression [1]: 47±9% | reduction of aP2 expression [1]: 51±2% | reduction of adiponectin expression [1]: 66±10%

KHGLYNLKQCKMSLNGQR [HBD2 peptide]
adipocyte size (IGFBP-2−/− mice): 11967±716 pixels/cell | % suppression of adiponectin ([1]; 0.7 μg/ml peptide): 49.4 ± 10% | % suppression of adiponectin ([1]; 2.0 μg/ml peptide): 87.9 ± 6.2% | % suppression of adiponectin ([1]; 6.0 μg/ml peptide): 96.9 ± 7.0% | potency in inhibiting preadipocyte differentiation relative to the HBD1 peptide ([1]; HBD2 peptide vs HBD1 peptide): 1.8 fold | relative potency as inhibitor of adipogenesis / preadipocyte differentiation (in words) [1]: most potent inhibitors of adipogenesis | relative potency as inhibitor of adipogenesis / preadipocyte differentiation (in words) ([1]; listed as human peptide): equipotent | reduction of PPARγ expression [1]: 67±7% | reduction of aP2 expression [1]: completely inhibited | reduction of adiponectin expression [1]: completely inhibited
